Experimental data published in ChEMBL document CHEMBL1697731, “Cheminformatics analysis of assertions mined from literature that describe drug-induced liver injury in different species” (Chem Res Toxicol, 2010).
Where a SMILES comes first, the peptide text is derived from it. Bridges are numbered along the chain shown (N, C = ends). [ ]: non-standard residue; d: D form. The star is where a group is joined. Threoninol(2S,3R) = C[C@@H](O)[C@H](CO)N*

Experiments:
Hepatotoxicity [1] = experiment: Literature-mined compound from Fourches et al multi-species drug-induced liver injury (DILI) dataset, effect in non-rodents
Hepatotoxicity [2] = experiment: Literature-mined compound from Fourches et al multi-species drug-induced liver injury (DILI) dataset, effect in rodents; conditions: rodentia
Hepatotoxicity [3] = experiment: Literature-mined compound from Fourches et al multi-species drug-induced liver injury (DILI) dataset, effect in humans; conditions: human

Row | SMILES | Hepatotoxicity (Hepatotoxicity [1]) | Hepatotoxicity (Hepatotoxicity [2]) | Hepatotoxicity (Hepatotoxicity [3]) | Hepatotoxicity (Hepatotoxicity [1]; Liver) | Hepatotoxicity (Hepatotoxicity [2]; Liver) | Hepatotoxicity (Hepatotoxicity [3]; Liver)
1 | CCCNC(=O)NS(=O)(=O)c1ccc(Cl)cc1 [CHLORPROPAMIDE] | no drug-induced liver injury reported | drug-induced liver injury reported | drug-induced liver injury reported | – | – | –
2 | CN1C(=O)[C@@H](NC(=O)c2cc3ccccc3[nH]2)N=C(c2ccccc2)c2ccccc21 [DEVAZEPIDE] | no drug-induced liver injury reported | drug-induced liver injury reported | no drug-induced liver injury reported | – | – | –
3 | CCOC(=O)C1=C(C)NC(C)=C(C(=O)OC)C1c1cccc(Cl)c1Cl (stereo not drawn) [FELODIPINE] | no drug-induced liver injury reported | no drug-induced liver injury reported | drug-induced liver injury reported | – | – | –
4 | CCCCc1oc2ccccc2c1C(=O)c1cc(I)c(OCCN(CC)CC)c(I)c1 [AMIODARONE] | – | – | – | drug-induced liver injury reported | drug-induced liver injury reported | drug-induced liver injury reported
5 | CO[C@]12CC[C@@]3(C[C@@H]1[C@](C)(O)C(C)(C)C)[C@H]1Cc4ccc(O)c5c4[C@@]3(CCN1CC1CC1)[C@H]2O5 [BUPRENORPHINE] | no drug-induced liver injury reported | drug-induced liver injury reported | drug-induced liver injury reported | – | – | –
6 | Cc1ccc(O)c([C@H](CCN(C(C)C)C(C)C)c2ccccc2)c1 [TOLTERODINE] | no drug-induced liver injury reported | no drug-induced liver injury reported | drug-induced liver injury reported | – | – | –
7 | CN(Cc1cnc2nc(N)nc(N)c2n1)c1ccc(C(=O)N[C@@H](CCC(=O)O)C(=O)O)cc1 [METHOTREXATE] | drug-induced liver injury reported | drug-induced liver injury reported | drug-induced liver injury reported | – | – | –
8 | Nc1nnc(-c2cccc(Cl)c2Cl)c(N)n1 [LAMOTRIGINE] | no drug-induced liver injury reported | no drug-induced liver injury reported | drug-induced liver injury reported | – | – | –
9 | CC(=O)O[C@]1(C(C)=O)CC[C@H]2[C@@H]3C=C(Cl)C4=CC(=O)CC[C@]4(C)[C@H]3CC[C@@]21C [CHLORMADINONE ACETATE] | drug-induced liver injury reported | drug-induced liver injury reported | drug-induced liver injury reported | – | – | –
10 | OCCSCCCCCCCCCCSCCO [TIADENOL] | no drug-induced liver injury reported | drug-induced liver injury reported | no drug-induced liver injury reported | – | – | –
11 | CC(C)NCC(O)COc1ccc(COCCOC(C)C)cc1 (stereo not drawn) [BISOPROLOL] | no drug-induced liver injury reported | no drug-induced liver injury reported | drug-induced liver injury reported | – | – | –
12 | Cn1c(CCCC(=O)O)nc2cc(N(CCCl)CCCl)ccc21 [BENDAMUSTINE] | no drug-induced liver injury reported | no drug-induced liver injury reported | drug-induced liver injury reported | – | – | –
13 | CN1C[C@H](C(=O)N[C@]2(C)O[C@@]3(O)[C@@H]4CCCN4C(=O)[C@H](Cc4ccccc4)N3C2=O)C[C@@H]2c3cccc4[nH]cc(c34)C[C@H]21 [DIHYDROERGOTAMINE] | no drug-induced liver injury reported | drug-induced liver injury reported | drug-induced liver injury reported | – | – | –
14 | Nc1ncnc2c1ncn2[C@@H]1O[C@H](CO)[C@@H](O)[C@@H]1O [VIDARABINE] | no drug-induced liver injury reported | drug-induced liver injury reported | drug-induced liver injury reported | – | – | –
15 | CCn1cc(C(=O)O)c(=O)c2cc(F)c(N3CCNCC3)cc21 [NORFLOXACIN] | – | – | – | no drug-induced liver injury reported | drug-induced liver injury reported | drug-induced liver injury reported
16 | CC/C(=C(/c1ccc(OCCN(C)C)cc1)c1cccc(O)c1)c1ccccc1 [DROLOXIFENE] | no drug-induced liver injury reported | drug-induced liver injury reported | no drug-induced liver injury reported | – | – | –
17 | O=C1CCCC(=O)C1C(=O)c1ccc(C(F)(F)F)cc1[N+](=O)[O-] [NITISINONE] | drug-induced liver injury reported | drug-induced liver injury reported | no drug-induced liver injury reported | – | – | –
18 | CNC1(c2ccccc2Cl)CCCCC1=O (stereo not drawn) [KETAMINE] | drug-induced liver injury reported | drug-induced liver injury reported | no drug-induced liver injury reported | – | – | –

Row | SMILES | Hepatotoxicity (Hepatotoxicity [1]) | Hepatotoxicity (Hepatotoxicity [2]) | Hepatotoxicity (Hepatotoxicity [3]) | Hepatotoxicity (Hepatotoxicity [1]; Liver) | Hepatotoxicity (Hepatotoxicity [2]; Liver) | Hepatotoxicity (Hepatotoxicity [3]; Liver)
19 | NC(=O)c1ncn([C@@H]2O[C@H](CO)[C@@H](O)[C@H]2O)c1N [ACADESINE] | no drug-induced liver injury reported | drug-induced liver injury reported | no drug-induced liver injury reported | – | – | –
20 | O=c1c(-c2ccccc2)coc2ccccc12 [ISOFLAVONE] | drug-induced liver injury reported | no drug-induced liver injury reported | no drug-induced liver injury reported | – | – | –
21 | Cn1c(=O)c2[nH]cnc2n(C)c1=O.Cn1c(=O)c2[nH]cnc2n(C)c1=O.NCCN [AMINOPHYLLINE] | no drug-induced liver injury reported | drug-induced liver injury reported | drug-induced liver injury reported | – | – | –
22 | Clc1ccc2c(c1)C(c1ccccc1)=NCc1nncn1-2 [ESTAZOLAM] | no drug-induced liver injury reported | drug-induced liver injury reported | no drug-induced liver injury reported | – | – | –
23 | CCCCN1C[C@H](O)[C@@H](O)[C@H](O)[C@H]1CO | no drug-induced liver injury reported | drug-induced liver injury reported | no drug-induced liver injury reported | – | – | –
24 | O=C1OCCN1/N=C/c1ccc([N+](=O)[O-])o1 [FURAZOLIDONE] | no drug-induced liver injury reported | drug-induced liver injury reported | no drug-induced liver injury reported | – | – | –
25 | C[C@@H](O)[C@H](CO)NC(=O)[C@@H]1CSSC[C@H](NC(=O)[C@H](N)Cc2ccccc2)C(=O)N[C@@H](Cc2ccccc2)C(=O)N[C@H](Cc2c[nH]c3ccccc23)C(=O)N[C@@H](CCCCN)C(=O)N[C@@H]([C@@H](C)O)C(=O)N1 (H-[dF]CF[dW]KTC-{Threoninol(2S,3R)}; disulfide 2-7) | no drug-induced liver injury reported | drug-induced liver injury reported | drug-induced liver injury reported | – | – | –
26 | O=C1CC[C@@]2(O)[C@H]3Cc4ccc(O)c5c4[C@@]2(CCN3CC2CC2)[C@H]1O5 [NALTREXONE] | no drug-induced liver injury reported | drug-induced liver injury reported | drug-induced liver injury reported | – | – | –
27 | Clc1ccc2nsnc2c1NC1=NCCN1 [TIZANIDINE] | – | – | – | no drug-induced liver injury reported | no drug-induced liver injury reported | drug-induced liver injury reported
28 | CN(N=O)C(=O)N[C@@H](C=O)[C@@H](O)[C@H](O)[C@H](O)CO [STREPTOZOCIN] | drug-induced liver injury reported | drug-induced liver injury reported | no drug-induced liver injury reported | – | – | –
29 | CC(CCc1ccccc1)NCC(O)c1ccc(O)c(C(N)=O)c1 (stereo not drawn) [LABETALOL] | no drug-induced liver injury reported | no drug-induced liver injury reported | drug-induced liver injury reported | – | – | –
30 | CN(c1nccc(=O)[nH]1)C1CCN(c2nc3ccccc3n2Cc2ccc(F)cc2)CC1 [MIZOLASTINE] | no drug-induced liver injury reported | no drug-induced liver injury reported | drug-induced liver injury reported | – | – | –
31 | O=C(/C=C/c1ccc(O)c(O)c1)O[C@@H]1C[C@@](OC(=O)/C=C/c2ccc(O)c(O)c2)(C(=O)O)C[C@@H](O)[C@@H]1O [CYNARIN] | no drug-induced liver injury reported | drug-induced liver injury reported | no drug-induced liver injury reported | – | – | –
32 | C[C@H](CCC(=O)O)[C@H]1CC[C@H]2[C@@H]3[C@H](O)C[C@@H]4C[C@H](O)CC[C@]4(C)[C@H]3CC[C@]12C [CHENODIOL] | drug-induced liver injury reported | drug-induced liver injury reported | drug-induced liver injury reported | – | – | –
33 | COc1cc(Cc2cnc(N)nc2N)cc(OC)c1OC [TRIMETHOPRIM] | – | – | – | no drug-induced liver injury reported | drug-induced liver injury reported | drug-induced liver injury reported
34 | COc1cc([C@@H]2c3cc4c(cc3[C@H](O)[C@H]3COC(=O)[C@H]23)OCO4)cc(OC)c1OC [PODOFILOX] | no drug-induced liver injury reported | drug-induced liver injury reported | no drug-induced liver injury reported | – | – | –
35 | CC(C)c1nc(N(C)S(C)(=O)=O)nc(-c2ccc(F)cc2)c1/C=C/[C@@H](O)C[C@@H](O)CC(=O)O [ROSUVASTATIN] | no drug-induced liver injury reported | drug-induced liver injury reported | no drug-induced liver injury reported | – | – | –
36 | C[C@]12CC[C@@H]3c4ccc(O)cc4CC[C@H]3[C@@H]1CCC2=O [ESTRONE] | no drug-induced liver injury reported | drug-induced liver injury reported | drug-induced liver injury reported | – | – | –
